The record followed here is patent publication US4409228A, “Andrexiant aminopiperidines intermediates thereto and drugs containing same” (Sanofi, priority 1979, dated 1983).

Assay type in all cases: in vivo
The nature of series [1]: Acute toxicity, LD50 in the rat by the oral route. The note with it: in vivo; for selectivity ratio: ratio acute toxicity LD50 / anorexiant ED50 (therapeutic index), read-out: A/B. From the text:
(§1) the acute toxicity, expressed at LD50 in the rat by the oral route (data A);

Series [2] in a line: Locomotor activity in the rat, oral (inhibition of spontaneous motility, photoelectric cell). The note with it: for ED50 at 0.5 h / selectivity ratio: in vivo; for ED50 at 0.5 h: female rats, oral dose inhibiting spontaneous motility by 50%, pulses during 10 minutes, 30 minutes after treatment, read-out: C locom. act. inhibition ID50; for selectivity ratio: ratio locomotor ID50 / anorexiant ED50 (therapeutic index), read-out: C/B; for selectivity ratio / inhibition of locomotor activity (in words): oral; for inhibition of locomotor activity (in words): relative to anorexiant ED50. The procedure: The products were also assessed as a function of their action on the locomotor activity in the rat. To this end, female rats weighing about 200 g were used, to which the compounds were administered by the oral route. After 30 minutes, the treated animals were placed in a cage (80×80 cm) provided with a photoelectric cell for measuring the spontaneous movements, and the number of pulses transmitted to the cell for 10 minutes was recorded. The inhibition of the locomotor activity of each substance (6 to 10 animals per dose) was expressed as a percentage with respect to the controls.
the action on the locomotor activity, expressed as oral dose inhibiting by 50% the spontaneous motility, namely the number of pulses transmitted to the photoelectric cell during the 10 minutes (ID50, data C);

The nature of series [3]: Anorexiant activity, food consumption method in the rat, oral (ED50). The note with it: for ED50: read-out: B anorexiant activity ED50; for anorexiant activity (in words): oral. The method, then: (§2) The anorexiant activity was assessed by the food consumption method in the rat. Female rats weighing 200 g were used, trained for 10 days to eat during a period of 4 hours and selected on the eighth day. After the tenth day, the randomized animals were divided into a "control group", treated solely with the carrier, and into several "treated groups". The treatment was effected by the intraperitoneal route 30 minutes before the presentation of food and the quantity of food consumed in the course of the first hour was then measured. The data in Table I indicate the percentage of inhibition of the food consumption of the animals treated with the compounds according to the present invention with respect to the controls.
The anorexiant activity by the oral route of a product according to the present invention, 4-amino-1-(6-chloro-2-pyridyl)piperidine in the form of mono hydrochloride (CM 57227, compound of Example 1), was tested in accordance with the food consumption method described hereinabove; as well known anorexiant product, fenfluramine, as well as 1-(6-chloro-2-pyridyl)piperazine in the form of monohydrochloride, described in U.S. Pat. No. 4,078,063, and 1-(6-chloro-2-pyrazinyl) piperazine in monohydrochloride form, described in British Pat. No. 1,492,528, were used as reference products.
the anorexiant activity, expressed as oral dose inhibiting by 50% the food consumption (ED50, data B);

The next series has as its system male mice. The series is described as follows: Acute toxicity, zone of mortality, mice, intraperitoneal. The note with it: i.p., 48 h observation, doses with lowest (at least 1 death) and highest mortality. The procedure:
With respect to their degree of activity, the 4-amino-1-(2-pyridyl)piperidines of the present invention are sparingly toxic and present a good therapeutic index. In Table I hereinbelow, the acute toxicity is expressed in the form of "zone of mortality". 6 batches of male mice weighing about 20 g were used, in which were injected the compounds of the present invention, dissolved or suspended in carboxymethylcellulose, by the intraperitoneal route, at at least four doses for each batch of animals. […] The "mortality zone" is represented by the doses at which the lowest mortality (at least 1 death) and the highest are observed.

A short description of series [4]: Anorexiant activity, food consumption method in the rat, intraperitoneal. The note with it: female rats, i.p., food consumed in first hour, vs controls. The procedure:
as §2

Another series relates to cerebral serotonin. Nature of the series: Cerebral levels of serotonin after intraperitoneal administration in the rat. The note with it: for Cerebral levels of serotonin % with respect to controls: 60 minutes before sacrifice. The method, then:
Table III below summarises the cerebral levels of serotonin after intraperitoneal administration in the rat of a compound according to the present invention, 4-amino-1-(6-chloro-2-pyridyl) piperidine in monohydrochloride form (CM 57227, product of Example 1). Fenfluramine was used as reference product.
The animals were treated 60 minutes before sacrifice.

Another series has as its system rat. The series is described as follows: Acute toxicity, LD50 in the rat by the oral route.
Excerpt: as §1

Each structure is given as a SMILES string. Where a name gives a salt, the structure may show the parent alone. Read-outs that look alike come from different tables or passages of the source.

In the case of `Clc1cncc(N2CCNCC2)n1` [1-(6-chloro-2-pyrazinyl)piperazine HCl, 1-(6-chloro-2-pyrazinyl) piperazine], in series [1], the median lethal dose (LD50) turned out to be 79.6 mg/kg and the selectivity ratio was 46.8. Besides, in series [2], the ED50 at 0.5 h came to 0.6 mg/kg, the selectivity ratio worked out at 0.3 and the “inhibition of locomotor activity (in words)” value (“inhibition … (in words)” below) is “inhibit the locomotor activity at doses even lower than the anorexiant ED50”. The ED50 in series [3] (Rattus norvegicus, po) worked out at 1.7 mg/kg. Further, the “anorexiant activity (in words)” value in series [3] (rat) is on record as “very active as anorexiants”.

With `Clc1cccc(N2CCNCC2)n1` [1-(6-chloro-2-pyridyl)piperazine HCl, 1-(6-chloro-2-pyridyl)piperazine], in series [1], the 50% lethal dose (LD50) stood at 174 mg/kg and the selectivity ratio amounted to 48.3. Further, in series [2], the ED50 at 0.5 h worked out at 2.1 mg/kg, the selectivity ratio turned out to be 0.58 and the “inhibition … (in words)” value was “inhibit the locomotor activity at doses even lower than the anorexiant ED50”. Further, the ED50 in series [3] (Rattus norvegicus, po) was determined as 3.6 mg/kg. The “anorexiant activity (in words)” value in series [3] (rat) is listed as “very active as anorexiants”.

Turning to `NC1CCN(c2cccc(Cl)n2)CC1` [CM 57227, 4-amino-1-(6-chloro-2-pyridyl) piperidine], the Mortality zone with male mice fell in the range of 100 to 150 mg/kg. Moreover, in series [1], the LD50 turned out to be 190 mg/kg and the selectivity ratio is 24.3. Moreover, the “Food consumption % inhibition” value in series [4] (10 mg/kg) was 70.8%. In series [2], the ED50 at 0.5 h stood at 60 mg/kg and the selectivity ratio was determined as 7.7. Further, the ED50 in series [3] (rat, oral dose inhibiting food consumption by 50%) turned out to be 7.8 mg/kg. Also, the “Cerebral levels of serotonin % with respect to controls” value (shortened to “Cerebral levels of serotonin %”) in the series on cerebral serotonin (5 mg/kg i.p.) is on record as 105%. The “Cerebral levels of serotonin %” value in the series on cerebral serotonin (10 mg/kg i.p.) stood at 120%.

As to `COc1cccc(N2CCC(N)CC2)n1` [CM 57366, 4-amino-1-(6-methoxy-2-pyridyl) piperidine], in the series with male mice, the Mortality zone lay within 150 to 200 mg/kg. In addition, the “Food consumption % inhibition” value in series [4] (30 mg/kg) came to 67.0%.

On to `NC1CCN(c2cccc(Sc3ccccc3)n2)CC1` [CM 57369, 4-amino-1-(6-phenylthio-2-pyridyl)piperidine], for which, in the series with male mice, the Mortality zone fell in the range of 150 to 200 mg/kg. The “Food consumption % inhibition” value in series [4] (40 mg/kg) is 95.2%.

Take `Cc1cccc(N2CCC(N)CC2)n1` [CM 57371, 4-amino-1-(6-methyl-2-pyridyl)piperidine]: in the series with male mice, the Mortality zone was in the range of 175 to 225 mg/kg. Also, in series [4] (40 mg/kg), the “Food consumption % inhibition” value is recorded as 77.2%.

The compound `NC1CCN(c2cccc(Br)n2)CC1` [CM 57373, 4-amino-1-(6-bromo-2-pyridyl) piperidine] yielded a Mortality zone in the series with male mice of 100 to 175 mg/kg. The “Food consumption % inhibition” value in series [4] (20 mg/kg) is reported as 89.8%.

Compound `NC1CCN(c2cccc(OCC(F)(F)F)n2)CC1` [CM 57385, 4-amino-1-[6-(2,2,2-trifluoro)ethoxy-2-pyridyl] piperidine] gave a Mortality zone in the series with male mice of 150 to 250 mg/kg. For the same compound, the “Food consumption % inhibition” value in series [4] (30 mg/kg) was 78.2%.

For the compound `CCNC(C)Cc1cccc(C(F)(F)F)c1` (centres unmarked) [fenfluramine], in the series on rat, the “A Acute toxicity LD50” value was 100.9 mg/kg and the “therapeutic index A/B, comparison (in words)” value was “almost equal to that of the 4-amino-1-(6-chloro-2-pyridyl)piperidine of the present invention”. For the same compound, in series [1], the selectivity ratio was found to be 25.2. Also, in series [2], the ED50 at 0.5 h is 12 mg/kg, the selectivity ratio turned out to be 3 and the “inhibition … (in words)” value was “much greater inhibiting action on the locomotor activity”. In addition, the ED50 in series [3] (Rattus norvegicus, po) turned out to be 4 mg/kg. For the same compound, in the series on cerebral serotonin (3.75 mg/kg i.p., * significant: p < 0.01), the “Cerebral levels of serotonin %” value is reported as 69%. In addition, the “Cerebral levels of serotonin %” value in the series on cerebral serotonin (7.5 mg/kg i.p., * significant: p < 0.01) is recorded as 51%. The “Cerebral levels of serotonin %” value in the series on cerebral serotonin (15 mg/kg i.p., * significant: p < 0.01) was determined as 42%. For the same compound, in the series with cerebral serotonin (i.p., anorexiant or equivalent doses), the “cerebral levels of serotonin (in words)” value is recorded as “causes a significant reduction in cerebral serotonin”.

What is called LD50 is the dose at which mortality reaches 50%. Low values mean greater toxicity, high ones lower toxicity.
